Data published in PubChem BioAssay AID652241 (Broad Institute, 2013).
Results filed as inconclusive are left out. Calls of active or inactive are those of the source.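 The calls were made as follows: active = fitted curve reaches activity 50 in the expected rising direction at or below the top valid tested dose; inconclusive = no clear call, values can overlap the other calls; inactive = activity in the wrong direction, and the rest.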

Target: Virion infectivity factor (Human immunodeficiency virus type 1 group M subtype B (isolate BH10)) + Virion infectivity factor (Human immunodeficiency virus type 1 group M subtype B (isolate BRU/LAI)) + Virion infectivity factor (Human immunodeficiency virus type 1 group M subtype B (isolate PCV12)) + Virion infectivity factor (Human immunodeficiency virus type 1 group M subtype B (isolate HXB2)) (UniProt P69720+P69721+P69722+P69723)
Assay: Vif multimerization inhibitor potency, dose response, imaging, HEK293T, cherry-picks (AID 652241);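 also: imaged cell signal that rises when Vif self-association is disrupted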
Conditions: 24 h

Sequence of Virion infectivity factor (Human immunodeficiency virus type 1 group M subtype B (isolate BH10)) + Virion infectivity factor (Human immunodeficiency virus type 1 group M subtype B (isolate BRU/LAI)) + Virion infectivity factor (Human immunodeficiency virus type 1 group M subtype B (isolate PCV12)) + Virion infectivity factor (Human immunodeficiency virus type 1 group M subtype B (isolate HXB2)) (P69720 whole entry, looked up): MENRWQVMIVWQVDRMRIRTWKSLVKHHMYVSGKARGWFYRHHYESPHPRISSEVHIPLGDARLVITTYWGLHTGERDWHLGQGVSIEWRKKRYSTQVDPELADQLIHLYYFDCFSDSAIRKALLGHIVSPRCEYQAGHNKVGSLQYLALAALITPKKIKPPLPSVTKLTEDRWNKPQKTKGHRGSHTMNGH
Sequence of Virion infectivity factor (Human immunodeficiency virus type 1 group M subtype B (isolate BH10)) + Virion infectivity factor (Human immunodeficiency virus type 1 group M subtype B (isolate BRU/LAI)) + Virion infectivity factor (Human immunodeficiency virus type 1 group M subtype B (isolate PCV12)) + Virion infectivity factor (Human immunodeficiency virus type 1 group M subtype B (isolate HXB2)) (P69721 whole entry, looked up): as the sequence (P69720 whole entry, looked up) above
Sequence of Virion infectivity factor (Human immunodeficiency virus type 1 group M subtype B (isolate BH10)) + Virion infectivity factor (Human immunodeficiency virus type 1 group M subtype B (isolate BRU/LAI)) + Virion infectivity factor (Human immunodeficiency virus type 1 group M subtype B (isolate PCV12)) + Virion infectivity factor (Human immunodeficiency virus type 1 group M subtype B (isolate HXB2)) (P69722 whole entry, looked up): as the sequence (P69720 whole entry, looked up) above
Sequence of Virion infectivity factor (Human immunodeficiency virus type 1 group M subtype B (isolate BH10)) + Virion infectivity factor (Human immunodeficiency virus type 1 group M subtype B (isolate BRU/LAI)) + Virion infectivity factor (Human immunodeficiency virus type 1 group M subtype B (isolate PCV12)) + Virion infectivity factor (Human immunodeficiency virus type 1 group M subtype B (isolate HXB2)) (P69723 whole entry, looked up): as the sequence (P69720 whole entry, looked up) above

Compound	activity, higher = inhibition (at 19.5 µM (top of the series))	further results
COc1cc(OC)cc(C(=O)N[C@H](C(=O)Nc2ccc3c(c2)OCO3)C(C)C)c1	inactive	
CC(=O)Nc1ccc(S(=O)(=O)N2c3ccccc3C(C)=CC2(C)C)cc1		AC50: > 19.5 µM (inactive)
COc1ccc(CCNc2nnc(Sc3nnnn3-c3ccccc3)s2)cc1OC		AC50: 5.92 µM
O=C(Nc1cnccn1)Nc1ccccc1Cl	inactive	
O=C(CCCn1c(=S)[nH]c2ccccc2c1=O)N1CCN(c2cccc(Cl)c2)CC1	inactive	
CCC1(CC)NC(=O)N(CC(=O)Nc2ccc(OCc3ccccc3)cc2)C1=O	inactive	
CCOc1ccccc1NC(=O)Cn1nnc(C(=O)NCc2cccs2)c1N		AC50: 5.28 µM
CC(Cc1ccc(O)cc1)NCC(O)c1cc(O)cc(O)c1 (stereo not drawn)	inactive	
CC(=O)Nc1ccc(-c2ccnc3c2CC(C(=O)NCc2ccccc2)O3)cc1 (stereo not drawn)		AC50: 1.28 µM
O=C(CCN1CCOCC1)Nc1ccc(Cl)cc1	inactive	
COc1cc(OC)cc(C(=O)NC(C(=O)Nc2ccc3c(c2)OCO3)C(C)C)c1 (stereo not drawn)	inactive	
O=C(Nc1nn[nH]n1)c1cc(-c2ccc(Cl)c(Cl)c2Cl)nc2ccccc12	inactive	
O=C(COC(=O)/C=C/C(=O)OCC(=O)Nc1ccccc1F)Nc1ccccc1F	inactive	
Cc1cccc(Nc2nc(-c3ccc(O)c(O)c3)cs2)n1		AC50: > 19.5 µM (inactive)
CCc1ccc(N2C(=O)/C(=C/c3cccs3)N(CC(=O)OC)C2=S)cc1		AC50: 18.8 µM
CCn1c(SCc2ccc(C(=O)Nc3nccs3)cc2)nnc1-c1ccc(N)cc1	inactive	
COc1ccccc1Oc1coc2cc(OCC(N)=O)ccc2c1=O	inactive	
COc1ccc(-c2nc3cnccn3c2NC2CCCCC2)cc1-c1cccc(Cl)c1		AC50: 14.5 µM
COc1cc(Nc2nc3ccccc3n3nnnc23)cc(OC)c1OC		activity, higher = inhibition (at 6.8 µM (top of the series)): inactive
CC(C)OC(=O)c1ccc(NCc2cc(O)ccc2O)cc1Cl		AC50: 5 µM
c1ccc(-c2cn3nc(-c4ccccc4)c(-c4ccccc4)nc3n2)cc1		AC50: 19.2 µM
COc1c2occc2c(OC)c2c(=O)cc(C)oc12	inactive	
COc1ccc2cc(-c3cc(C(=O)OCC(=O)NC4CCS(=O)(=O)C4)c4ccccc4n3)ccc2c1 (stereo not drawn)		AC50: 14.7 µM
CCn1cc(CN2CCCC(C(=O)Nc3cccc(-c4cc5ccccc5[nH]4)c3)C2)c(C)n1 (stereo not drawn)	inactive	

Compound	activity, higher = inhibition (at 19.5 µM (top of the series))	further results
CCCCCCn1c(N(CC)CC)nc2c1c(=O)[nH]c(=O)n2C	inactive	
COc1ccc(S(=O)(=O)Nc2cccc3ccc(O)cc23)cc1	inactive	
CCOC(=O)Nc1ccc(NCc2ccc(F)cc2)nc1N	inactive	
Cc1cccc(C)c1NC(=O)COc1ccc2c(C)c(Cc3ccccc3)c(=O)oc2c1C	inactive	
O=C(O)c1ccc(-c2nc(-c3cccc(C(F)(F)F)c3)cs2)cc1	inactive	
CCOc1ccc(NC(=O)CN(C)C(=O)c2cc(S(=O)(=O)N3CCCCC3)ccc2Cl)cc1OCC	inactive	
Cc1cc2cc(C#N)c(SCC(=O)Nc3nonc3C)nc2cc1C		AC50: 8.45 µM
COc1ccc(CC(NC(C)=O)C(=O)NC2CCN(C(=O)c3ccccc3F)CC2)cc1 (stereo not drawn)	inactive	
O=C1S/C(=C/c2ccc(N3CCOCC3)o2)C(=O)N1Cc1c(F)cccc1Cl		activity, higher = inhibition (at 0.75 µM (top of the series)): inactive
CCc1nnc(NC(=O)c2sc3nc4cc(C)ccc4cc3c2N)s1		activity, higher = inhibition (at 6.8 µM (top of the series)): inactive
CCc1cc2c(Sc3nc4ccccc4s3)ncnc2s1	inactive	
CC(C)C(NC(=O)c1ccccc1NC(=O)C(C)(C)C)C(=O)N1CCOCC1 (stereo not drawn)	inactive	
Cc1nc(NC(=O)C(C)Oc2cccc(Cl)c2)sc1C(=O)N(C)C (stereo not drawn)		activity, higher = inhibition (at 2.1 µM (top of the series)): inactive
COc1ccc(-c2nc(-c3ccccn3)nc(N3CCN(C)CC3)c2C#N)cc1	inactive	
COc1cc(-c2cnc3c(NC=O)cc(-c4ccccc4)cn23)cc(OC)c1OC		AC50: 2.45 µM
Cc1ccnc(SCC(=O)n2c3c(c4ccccc42)CC(C)CC3)n1 (stereo not drawn)	inactive	
CCN(CC)c1ccc2cc(C(N)=O)c(=O)oc2c1		AC50: > 19.5 µM (inactive)
CC(C)OC(=O)c1cn(-c2ccccc2)nc1-c1ccc2c(c1)OCCO2	inactive	
CCNC(=O)[C@H]1O[C@@H](n2cnc3c(N)nc(NCCc4ccc(CCC(=O)O)cc4)nc32)[C@H](O)[C@@H]1O	inactive	
COc1c(Br)cc(Br)cc1/C=C1/C(=O)N=C(N)N1C	inactive	
NC(CCc1ccccc1)c1csc(Nc2ccc(C(=O)c3ccccc3)cc2)n1 (stereo not drawn)		AC50: 10.2 µM
CC(NC(=O)CSc1nc2c(c(C(F)(F)F)n1)CCc1ccccc1-2)c1ccccc1 (stereo not drawn)	inactive	
Cc1cc(N2CCN(S(=O)(=O)c3ccc(Cl)c(Cl)c3)CC2)c2ccccc2n1	inactive	
Cc1nc(-c2ccccc2OC(F)(F)F)[nH]c(=O)c1Cl	inactive	
